# Experimental data reported in US9215877B2, “Compositions including a vacancy-engineered(VE)-ZnO nanocomposite, methods of making a composition , method of using a composition” (priority 2014, dated 2015).
# Tested on: E. coli
# Assay: Minimum inhibitory concentration (MIC) against E. coli
# Format: cell-based
# Conditions: Escherichia coli, read-out: MIC (μg/mL) in metallic Zn or Cu
smiles,measurement,value
"O=C([O-])c1ccccc1O.[Na+] [Capping Agent, sodium salicylate]",MIC,3000 µg/mL
